The values below come from ChEMBL document CHEMBL4680263, “Identification of benzothiazinones containing 2-benzyl-2,7-diazaspiro[3.5]nonane moieties as new antitubercular agents” (Eur J Med Chem, 2020).

The subject of experiment [1] is Mycobacterium tuberculosis. Put plainly: Antimycobacterial activity against multidrug resistance Mycobacterium tuberculosis 16883 clinical isolate assessed as inhibition of bacterial growth incubated for 7 days by MABA assay. Particulars: Mycobacterium tuberculosis, 16883, 168 h; time 7 day. In kind it is functional.
Experiment [2] concerns Mycobacterium tuberculosis. Put plainly: Antimycobacterial activity against multidrug resistance Mycobacterium tuberculosis 16995 clinical isolate assessed as inhibition of bacterial growth incubated for 7 days by MABA assay. Conditions: Mycobacterium tuberculosis, 16995, 168 h; time 7 day. The experiment is classed as functional. Background: The colour change of resazurin is a common sign of viable cells or microbes.

The term MIC denotes the lowest concentration that inhibits growth of the organism. Consider `CC(c1ccc(F)cc1F)N1CC2(CCN(c3nc(=O)c4cc(C(F)(F)F)cc([N+](=O)[O-])c4s3)CC2)C1` (centres undefined), for which the MIC in experiment [1] and in experiment [2] was under 0.016 µg/mL in each case.
As for `CC(c1ccc(F)c(Cl)c1)N1CC2(CCN(c3nc(=O)c4cc(C(F)(F)F)cc([N+](=O)[O-])c4s3)CC2)C1` (centres undefined), the minimal inhibitory concentration (MIC) in experiment [1] and in experiment [2] was under 0.016 µg/mL in each case.
Take `CC(c1cc(F)cc(F)c1)N1CC2(CCN(c3nc(=O)c4cc(C(F)(F)F)cc([N+](=O)[O-])c4s3)CC2)C1` (centres undefined): the minimum inhibitory concentration (MIC) in experiment [1] and in experiment [2] was under 0.016 µg/mL throughout.
On to `O=c1nc(N2CCC3(CC2)CN(Cc2cc(F)cc(F)c2)C3)sc2c([N+](=O)[O-])cc(C(F)(F)F)cc12`, for which the minimal inhibitory concentration (MIC) in experiment [1] and in experiment [2] was under 0.016 µg/mL throughout.
As for `CC(c1cccc(F)c1)N1CC2(CCN(c3nc(=O)c4cc(C(F)(F)F)cc([N+](=O)[O-])c4s3)CC2)C1` (centres undefined), the MIC in experiment [1] and in experiment [2] was under 0.016 µg/mL in each case.
In the case of `CO[C@H]1/C=C/O[C@@]2(C)Oc3c(C)c(O)c4c(O)c(c(/C=N/N5CCN(C)CC5)c(O)c4c3C2=O)NC(=O)/C(C)=C\C=C\[C@H](C)[C@H](O)[C@@H](C)[C@@H](O)[C@@H](C)[C@H](OC(C)=O)[C@@H]1C` [RIFAMPIN], the MIC in experiment [1] and in experiment [2] was over 10 µg/mL in each case.
Turning to `CC(c1ccc(OC(F)(F)F)cc1)N1CC2(CCN(c3nc(=O)c4cc(C(F)(F)F)cc([N+](=O)[O-])c4s3)CC2)C1` (centres undefined), the MIC in experiment [1] and in experiment [2] was under 0.016 µg/mL each time.
For `CC(c1ccc(F)c(F)c1)N1CC2(CCN(c3nc(=O)c4cc(C(F)(F)F)cc([N+](=O)[O-])c4s3)CC2)C1` (centres undefined), the MIC in experiment [1] and in experiment [2] was under 0.016 µg/mL each time.
In the case of `O=c1nc(N2CCC3(CC2)CN(Cc2cccc(F)c2)C3)sc2c([N+](=O)[O-])cc(C(F)(F)F)cc12`, the minimal inhibitory concentration (MIC) in experiment [1] and in experiment [2] was under 0.016 µg/mL each time.
For the molecule `O=c1nc(N2CCC3(CC2)CN(Cc2ccc(F)cc2)C3)sc2c([N+](=O)[O-])cc(C(F)(F)F)cc12`, the minimal inhibitory concentration (MIC) in experiment [1] and in experiment [2] was under 0.016 µg/mL each time.
For the molecule `CC(c1ccc(Cl)c(F)c1)N1CC2(CCN(c3nc(=O)c4cc(C(F)(F)F)cc([N+](=O)[O-])c4s3)CC2)C1` (centres undefined), the minimum inhibitory concentration (MIC) in experiment [1] and in experiment [2] was under 0.016 µg/mL in each case.
For `O=c1nc(N2CCN(CC3CCCCC3)CC2)sc2c([N+](=O)[O-])cc(C(F)(F)F)cc12` [MACOZINONE], the MIC in experiment [1] and in experiment [2] was under 0.016 µg/mL each time.
For the molecule `CC(c1ccc(Cl)cc1)N1CC2(CCN(c3nc(=O)c4cc(C(F)(F)F)cc([N+](=O)[O-])c4s3)CC2)C1` (centres undefined), the MIC in experiment [1] and in experiment [2] was under 0.016 µg/mL each time.
Regarding `O=c1nc(N2CCC3(CC2)CN(Cc2ccc(OC(F)(F)F)cc2)C3)sc2c([N+](=O)[O-])cc(C(F)(F)F)cc12`, the minimal inhibitory concentration (MIC) in experiment [1] and in experiment [2] was under 0.016 µg/mL each time.
For the molecule `O=c1nc(N2CCC3(CC2)CN(Cc2ccc(Br)cc2)C3)sc2c([N+](=O)[O-])cc(C(F)(F)F)cc12`, the MIC in experiment [1] and in experiment [2] was under 0.016 µg/mL in each case.
Turning to `CC(c1ccc(OC(F)(F)F)cc1)N1CCC2(CC1)CN(c1nc(=O)c3cc(C(F)(F)F)cc([N+](=O)[O-])c3s1)C2` (centres undefined), the MIC in experiment [1] and in experiment [2] was under 0.016 µg/mL throughout.
In the case of `CC(c1ccc(C(F)(F)F)cc1)N1CC2(CCN(c3nc(=O)c4cc(C(F)(F)F)cc([N+](=O)[O-])c4s3)CC2)C1` (centres undefined), the minimum inhibitory concentration (MIC) in experiment [1] and in experiment [2] was under 0.016 µg/mL each time.
With `O=c1nc(N2CCC3(CC2)CN(Cc2ccc(C(F)(F)F)cc2)C3)sc2c([N+](=O)[O-])cc(C(F)(F)F)cc12`, the minimal inhibitory concentration (MIC) in experiment [1] and in experiment [2] was under 0.016 µg/mL throughout.
On to `CC(c1ccc(Br)cc1)N1CC2(CCN(c3nc(=O)c4cc(C(F)(F)F)cc([N+](=O)[O-])c4s3)CC2)C1` (centres undefined), for which the MIC in experiment [1] and in experiment [2] was under 0.016 µg/mL throughout.
Consider `NNC(=O)c1ccncc1` [ISONIAZID], for which the minimal inhibitory concentration (MIC) in experiment [1] and in experiment [2] was over 10 µg/mL each time.
Take `CC(c1ccc(F)cc1)N1CC2(CCN(c3nc(=O)c4cc(C(F)(F)F)cc([N+](=O)[O-])c4s3)CC2)C1` (centres undefined): the minimum inhibitory concentration (MIC) in experiment [1] and in experiment [2] was under 0.016 µg/mL in each case.
On to `CC(c1cc(F)c(F)c(F)c1)N1CC2(CCN(c3nc(=O)c4cc(C(F)(F)F)cc([N+](=O)[O-])c4s3)CC2)C1` (centres undefined), for which the MIC in experiment [1] and in experiment [2] was under 0.016 µg/mL each time.
